Data reported in paper PMC3038857, “Using Nuclear Receptor Activity to Stratify Hepatocarcinogens” (PLoS ONE, 2011).
Where two headings read alike, the source gives them in different places.

Experiments:
CAR (NR1I3) [1] = biological target: T1, CAR (NR1I3) (Homo sapiens, UniProt Q14994); assay: NVS_NR_hCAR_Agonist: Human CAR CITCO Agonist (cell-free HTS); format: biochemical; conditions: scale not given, looks like -log10 of molar active concentration, 0 = no activity
T1 sequence (Q14994 1-352): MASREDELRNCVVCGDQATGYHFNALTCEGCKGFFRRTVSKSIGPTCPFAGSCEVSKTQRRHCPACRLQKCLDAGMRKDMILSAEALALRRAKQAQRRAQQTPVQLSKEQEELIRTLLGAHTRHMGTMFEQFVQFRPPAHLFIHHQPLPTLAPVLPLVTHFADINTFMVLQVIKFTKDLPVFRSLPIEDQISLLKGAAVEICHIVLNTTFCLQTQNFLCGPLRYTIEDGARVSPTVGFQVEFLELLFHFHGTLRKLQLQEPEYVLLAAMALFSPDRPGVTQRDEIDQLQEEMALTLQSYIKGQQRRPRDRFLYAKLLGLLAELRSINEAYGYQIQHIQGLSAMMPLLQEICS
Description: These are a collection of biochemical assays measuring binding constants and enzyme inhibition values. Chemicals were initially screened at a single concentration in duplicate wells at a concentration of 10 [drawing 63] M for cytochrome P-450 assays and 25 [drawing 64] M for all others. […] These assays were run by Caliper Life Sciences (Hanover, MD) under contract to EPA. Short assay descriptions are available at: http://www.caliperls.com/products/contract-research/in-vitro/.
Cell-free HTS Assays: A collection of biochemical assays measuring binding constants and enzyme inhibition values. […] These assays were run by Caliper Life Sciences (Hanover, MD) under contract to EPA. Short assay descriptions are available at http://www.caliperls.com/products/contract-research/in-vitro/. Values for all endpoints were imported into GeneData Screener (Basel, Switzerland) and normalised to solvent controls from the same plate as the tested compounds and expressed as percent of neutral control. Concentration-response curves were fit in GeneData Screener (Basel, Switzerland) Condeseo module using the Hill equation and AC50 values were determined. […] Detailed description of the methods, data and analysis methods for this dataset are described in a separate publication.

CAR (NR1I3) [2] = biological target: T1, CAR (NR1I3); assay: ATG_CAR_TRANS: Factorial reporter gene assay (HepG2); format: cell-based; parameters: endogenous in cells; host or cells: HepG2
Protocol: A multiple reporter transcription unit (MRTU) library consisting of 48 transcription factor binding sites was transfected into the HepG2 human liver hepatoma cell line. In addition to the cis-acting reporter genes (CIS), a modification of the approach was used to generate a trans-system (TRANS) with a mammalian one-hybrid assay consisting of an additional 25 MRTU library reporting the activity of nuclear receptor super-family members. […] These assays were performed by Attagene Inc. (Morrisville NC) under contract to EPA.
In addition to the cis-acting reporter genes (CIS), a modification of the approach was used to generate a trans-system (TRANS) with a mammalian one-hybrid assay consisting of an additional 25 MRTU library reporting the activity of nuclear receptor super-family members. […] Chemicals were then tested in the CIS and TRANS assays at seven concentrations starting at the MTC and followed by three-fold serial dilutions. These assays were performed by Attagene Inc. (Morrisville NC) under contract to EPA. Detailed description of the methods, data and analysis methods for this dataset will be presented in a separate publication.

CAR (NR1I3) [3] = biological target: T1, CAR (NR1I3); assay: ATG_PBREM_CIS: Factorial reporter gene assay (HepG2); format: cell-based; parameters: endogenous in cells; host or cells: HepG2; scale not given here
Outline: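 Seven concentrations per chemical, three-fold dilutions down from the MTC, were tested in HepG2 hepatoma cells. Those cells carried a multiple reporter transcription unit library, read either as cis transcription-factor-site reporters or as a trans mammalian one-hybrid panel for nuclear receptors.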

PPARa (PPARA) = biological target: T2, PPARa (PPARA) (Homo sapiens, UniProt Q07869); assay: NCGC_PPARa_Agonist: GAL4 BLAM Reporter gene assay: PPARa; format: cell-based; parameters: expressed in transfected cells; host or cells: HEK293; conditions: agonist mode
T2 sequence (Q07869 1-468): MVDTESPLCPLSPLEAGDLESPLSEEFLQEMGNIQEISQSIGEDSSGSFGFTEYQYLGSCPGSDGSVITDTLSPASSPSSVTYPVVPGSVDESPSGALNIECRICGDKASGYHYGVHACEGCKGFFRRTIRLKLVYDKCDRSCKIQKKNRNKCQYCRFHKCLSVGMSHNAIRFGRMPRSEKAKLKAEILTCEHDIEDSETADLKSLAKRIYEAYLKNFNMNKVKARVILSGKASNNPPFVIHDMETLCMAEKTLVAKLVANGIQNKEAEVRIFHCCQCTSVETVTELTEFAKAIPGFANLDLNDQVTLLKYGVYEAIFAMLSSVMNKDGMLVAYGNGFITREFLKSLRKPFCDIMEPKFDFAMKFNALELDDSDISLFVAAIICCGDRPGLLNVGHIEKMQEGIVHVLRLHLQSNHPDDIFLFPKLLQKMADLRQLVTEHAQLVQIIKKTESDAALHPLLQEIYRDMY
Protocol: These assays measure binding constants and enzyme inhibition values for nuclear receptors. The targets include [drawing 67] , [drawing 68] , [drawing 69] , [drawing 70] , [drawing 71] , [drawing 72] , [drawing 73] , [drawing 74] , [drawing 75] and [drawing 76] . Each of the nuclear receptor targets was measured in agonist mode. Assays were run at the NIH Chemical Genomics Center (Rockville, MD).
Cell-based HTS Assays: These assays measuring binding constants and enzyme inhibition values for nuclear receptors. The targets include AR, ER, FXR, LXR, PPARα, PPARδ, PPARγ, RXRα, RXRβ and PXR. Each of the nuclear receptor targets was measured in both agonist and antagonist mode, but the antagonist data is still undergoing analysis due to possible interference between cytotoxicity and assay activity, so antagonist mode data were not used in the present analysis. Assays were run at the NIH Chemical Genomics Center (Rockville, MD) as part of the Tox21 collaboration. […] The R^2 was required to be ≥0.5. Values where only the highest concentration exceeded 50% activity were excluded to eliminate weak or false positives. Detailed description of the methods, data and analysis methods for this dataset will be presented in a separate publication.

Mouse Liver = conditions: ref ToxRefDB, cited from earlier work
[4] = HepG2, scale not given, looks like -log10 of molar active concentration, 0 = no activity
[5] = scale not given, looks like -log10 of molar active concentration, 0 = no activity
[6] = mouse chronic study, liver, preneoplastic lesion, coded 6 / Inf / 0, code not explained here

| SMILES | NVS_NR_hCAR_Agonist (CAR (NR1I3) [1]) | ATG_CAR_TRANS (CAR (NR1I3) [2]; [4]) | ATG_PBREM_CIS (CAR (NR1I3) [3]; [4]) | NCGC_PPARa_Agonist (PPARa (PPARA); [5]) | CHR_Mouse_Liver_2_PreneoplasticLesion (Mouse Liver; [6]) | other results |
| --- | --- | --- | --- | --- | --- | --- |
| COC(=O)c1ccccc1CS(=O)(=O)NC(=O)Nc1nc(OC)cc(OC)n1 [r33] | 0 | 0 | 0 | 0 | – | – |
| CC(C)N1C(=O)c2ccccc2NS1(=O)=O [r37] | – | – | – | 0 | 6 | – |
| COc1ccc(-c2ccccc2)cc1NNC(=O)OC(C)C [r38] | 0 | 0 | 0 | 0 | 6 | – |
| Cc1c(COC(=O)C2C(/C=C(\Cl)C(F)(F)F)C2(C)C)cccc1-c1ccccc1 (stereo not shown) [r39] | 0 | 0 | 0 | 0 | 6 | – |
| CC(C)(c1ccc(O)cc1)c1ccc(O)cc1 [r40] | 0 | 0 | 0 | 0 | – | – |
| OB(O)O [r41] | 0 | 0 | 0 | 0 | – | – |
| O=C(Nc1ccccc1-c1ccc(Cl)cc1)c1cccnc1Cl [r42] | 0 | 0 | 0 | 0 | – | – |
| CCC(C)n1c(=O)[nH]c(C)c(Br)c1=O (stereo not shown) [r43] | 0 | 0 | 0 | 0 | 6 | – |
| N#Cc1cc(Br)c(O)c(Br)c1 [r44] | 0 | 0 | 0 | 4.173 | 6 | – |
| CC(C)N1C(=O)N(c2ccccc2)CS/C1=N\C(C)(C)C [r45] | 0 | 0 | 0 | 0 | 6 | – |
| CCCCOCN(C(=O)CCl)c1c(CC)cccc1CC [r46] | 0 | 0 | 0 | 0 | – | – |
| C=CCOC(=O)C(C)(C)OC(=O)c1cc(-n2c(=O)cc(C(F)(F)F)n(C)c2=O)ccc1Cl [r47] | 0 | 0 | 0 | 0 | 6 | – |
| CCC(C)Nc1c([N+](=O)[O-])cc(C(C)(C)C)cc1[N+](=O)[O-] (stereo not shown) [r48] | – | – | – | 0 | – | – |
| CCSC(=O)N(CC(C)C)CC(C)C [r49] | 0 | 0 | 0 | 0 | – | – |
| O=C1C2CC=CCC2C(=O)N1SC(Cl)(Cl)Cl (stereo not shown) [r51] | 0 | 0 | 0 | 0 | – | – |
| CNC(=O)Oc1cccc2ccccc12 [r52] | 0 | 0 | 0 | 0 | 6 | – |

| SMILES | NVS_NR_hCAR_Agonist (CAR (NR1I3) [1]) | ATG_CAR_TRANS (CAR (NR1I3) [2]; [4]) | ATG_PBREM_CIS (CAR (NR1I3) [3]; [4]) | NCGC_PPARa_Agonist (PPARa (PPARA); [5]) | CHR_Mouse_Liver_2_PreneoplasticLesion (Mouse Liver; [6]) | other results |
| --- | --- | --- | --- | --- | --- | --- |
| CC1=C(C(=O)Nc2ccccc2)SCCO1 [r53] | – | – | – | 0 | – | – |
| CCOC(=O)C(Cl)Cc1cc(-n2nc(C)n(C(F)F)c2=O)c(F)cc1Cl (stereo not shown) [r54] | 0 | 0 | 0 | 0 | – | – |
| Nc1cnn(-c2ccccc2)c(=O)c1Cl [r56] | 0 | 0 | 0 | 0 | – | – |
| COc1cc(Cl)c(OC)cc1Cl [r57] | – | – | – | 0 | – | – |
| N#Cc1c(Cl)c(Cl)c(Cl)c(C#N)c1Cl [r58] | 0 | 0 | 0 | 0 | – | – |
| CC(C)OC(=O)Nc1cccc(Cl)c1 [r59] | – | – | – | 0 | 6 | – |
| COc1nc(C)nc(NC(=O)NS(=O)(=O)c2ccccc2Cl)n1 [r62] | 0 | 0 | 0 | 0 | – | – |
| COc1nc(C)nc(NC(=O)NS(=O)(=O)c2ccccc2Cl)n1 [r63] | 0 | 0 | 0 | 0 | – | – |
| Cc1ccccc1CO[C@@H]1C[C@@]2(C(C)C)CC[C@]1(C)O2 [r64] | 0 | 0 | 0 | 0 | 6 | – |
| C#CCC1=C(C)[C@H](OC(=O)[C@H]2[C@H](C=C(C)C)C2(C)C)CC1=O [r249] | – | – | – | – | – | ATG_PBREM_CIS (CAR (NR1I3) [3]; HepG2): 5.276 |
| CCCN(CCC)c1c([N+](=O)[O-])cc(C(F)(F)F)c(N)c1[N+](=O)[O-] [r252] | – | – | – | – | – | ATG_PBREM_CIS (CAR (NR1I3) [3]; HepG2): 4.337; NCGC_PPARa_Agonist (PPARa (PPARA)): 4.688 |
| CCCC1COC(Cn2cncn2)(c2ccc(Cl)cc2Cl)O1 (stereo not shown) [r262] | – | – | – | – | – | CHR_Mouse_Liver_2_PreneoplasticLesion (Mouse Liver; mouse, chronic study): 6 |
| CC(C)=CC1C(C(=O)OCc2coc(Cc3ccccc3)c2)C1(C)C (stereo not shown) [r280] | – | – | – | – | – | CHR_Mouse_Liver_2_PreneoplasticLesion (Mouse Liver; chronic study, mouse liver): 6; ATG_CAR_TRANS (CAR (NR1I3) [2]; HepG2 reporter): 4.585 |
| CCc1nn(C)c(C(=O)NCc2ccc(C(C)(C)C)cc2)c1Cl [r291] | – | – | – | – | – | ATG_PBREM_CIS (CAR (NR1I3) [3]; HepG2 reporter): 5.745 |
| CC(C)Oc1cc(-n2nc(C(C)(C)C)oc2=O)c(Cl)cc1Cl [row 225] | – | – | – | – | – | CHR_Mouse_Liver_2_PreneoplasticLesion (Mouse Liver; chronic mouse study, liver): 6 |
